# Laboratory results from patent publication US8158829B2, “Organic sulfur compound and its use for controlling harmful arthropod” (Sumitomo Chemical Company, Limited, priority 2007, dated 2012).
# Tested on: Blattella germanica
# Experiment: Test Example 3: filter paper with sucrose bait, Blattella germanica male imagoes
# Assay type: in vivo
# Settings: 500 ppm, 0.7 ml on filter paper; 2 male imagoes; after 6 days
# Description: Preparations of the present compounds (2), (3), (5) and (6) obtained according to Formulation Example 11 were diluted so that the active ingredient concentration was 500 ppm to obtain test solutions.
# A filter paper having a diameter of 5.5 cm was spread on the bottom of a polyethylene cup having a diameter of 5.5 cm and 0.7 ml of the test solution was added dropwise onto the filter paper. As a bait 30 mg of sucrose was uniformly placed on the filter paper. Into the polyethylene cup, 2 male imagoes of Blattella germanica were released and the cup was sealed with a lid. After 6 days, the number of surviving Blattella germanica was examined and the death rate of the pest was calculated.
row,Structure (SMILES),death rate of the pest [%]
1,"COC(=O)C(Cl)(CCC(F)(F)C(F)(F)Br)S(=O)(=O)CCC(F)(F)F (stereo not shown) [present compound (5), methyl 6-bromo-2-chloro-5,5,6,6-tetrafluoro-2-(3,3,3-trifluoropropylsulfonyl)hexanoate]",100
2,"NC(=O)C(Cl)(CCC(F)(Cl)C(F)(F)Cl)S(=O)(=O)CCC(F)(F)F (stereo not shown) [present compound (3), 2,5,6-trichloro-5,6,6-trifluoro-2-(3,3,3-trifluoropropylsulfonyl)hexanamide]",100
3,"NC(=O)C(Cl)(CCC(F)(F)C(F)(F)Br)S(=O)(=O)CCC(F)(F)F (stereo not shown) [present compound (6), 6-bromo-2-chloro-5,5,6,6-tetrafluoro-2-(3,3,3-trifluoropropylsulfonyl)hexanamide]",100
4,"COC(=O)C(Cl)(CCC(F)(Cl)C(F)(F)Cl)S(=O)(=O)CCC(F)(F)F (stereo not shown) [present compound (2), methyl 2,5,6-trichloro-5,6,6-trifluoro-2-(3,3,3-trifluoropropylsulfonyl)hexanoate]",100
